Key:
Test in all cases: relative viability (nuclei count vs DMSO), 5 days (fraction); higher = more cells survive
GSK126 = compound: CC[C@H](C)N1C=C(C2=C(C=C(C=C21)C3=CN=C(C=C3)N4CCNCC4)C(=O)NCC5=C(C=C(NC5=O)C)C)C [GSK126]
How it was run: (§1)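 After an overnight hold at 37 °C, lung cancer cell lines in 1536-well plates were pinned with five library-drug doses (not always all listed), each √10 from the next, on vehicle-anchored plates. The cells stayed 5 days without fresh medium, then a one-step fix, permeabilisation and Hoechst stain preceded 4× imaging and MetaXpress nuclear counts. A plate passed only with control CV under 25% and at least one doubling. Viability is the median, over plates, of treated-well nuclei relative to vehicle-well nuclei.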

MLN4924 = compound: NS(=O)(=O)OC[C@@H]1C[C@@H](n2ccc3c(N[C@H]4CCc5ccccc54)ncnc32)C[C@@H]1O [MLN4924]
How it was run: as §1

Carboplatin = compound: C1CC(C1)(C(=O)O)C(=O)O.[NH2-].[NH2-].[Pt+2] [Carboplatin]
How it was run: as §1

Cell Line | relative viability (GSK126; 0.08 µM) | relative viability (GSK126; 0.253 µM) | relative viability (GSK126; 0.8 µM) | relative viability (GSK126; 2.53 µM) | relative viability (GSK126; 8 µM) | relative viability (MLN4924; 0.04 µM) | relative viability (MLN4924; 0.1265 µM) | relative viability (MLN4924; 0.4 µM) | relative viability (MLN4924; 1.265 µM) | relative viability (MLN4924; 4 µM) | relative viability (Carboplatin; 0.08 µM) | relative viability (Carboplatin; 0.253 µM) | relative viability (Carboplatin; 0.8 µM) | relative viability (Carboplatin; 2.53 µM) | relative viability (Carboplatin; 8 µM)
NCI-H1395 | 1.03 | 0.926 | 0.893 | 1 | 0.957 | 0.868 | 0.951 | 0.618 | 0.354 | 0.381 | 1.16 | 0.885 | 0.833 | 0.749 | 0.766
NCI-H1437 | 1.05 | 1 | 0.945 | 0.92 | 0.919 | 0.941 | 0.988 | 0.841 | 0.423 | 0.281 | 1.03 | 0.965 | 0.966 | 0.905 | 0.868
NCI-H1563 | 1.04 | 0.999 | 1.06 | 1.04 | 0.965 | 1.42 | 1.21 | 0.818 | 0.494 | 0.511 | 0.963 | 1 | 1.03 | 0.946 | 1.02
NCI-H1623 | 0.974 | 1.04 | 0.959 | 0.954 | 1 | 0.744 | 0.53 | 0.443 | 0.298 | 0.246 | 1.03 | 0.963 | 0.872 | 0.875 | 0.695
NCI-H1648 | 0.932 | 0.783 | 1.07 | 1.2 | 0.725 | 0.635 | 0.448 | 0.329 | 0.246 | 0.32 | 1.13 | 0.878 | 0.871 | 0.6 | 0.813
NCI-H1650 | 1.05 | 0.948 | 0.954 | 1.02 | 1.03 | 0.708 | 0.578 | 0.286 | 0.171 | 0.201 | 0.995 | 0.888 | 0.933 | 0.812 | 0.638
NCI-H1651 | 1.09 | 0.957 | 0.956 | 1.05 | 1.09 | 1.02 | 1.04 | 0.967 | 0.503 | 0.202 | 0.996 | 1.01 | 0.948 | 0.861 | 0.679
NCI-H1666 | 0.966 | 1.03 | 0.984 | 0.95 | 1.07 | 1.02 | 0.915 | 0.632 | 0.35 | 0.38 | 1.03 | 1.02 | 0.987 | 0.913 | 0.797
NCI-H1703 | 1.21 | 0.834 | 0.96 | 1.04 | 1.13 | 0.43 | 0.314 | 0.255 | 0.136 | 0.141 | 1.27 | 1.1 | 0.998 | 1.05 | 1.01
NCI-H1734 | 1.13 | 0.981 | 0.986 | 1.03 | 1.01 | 1.02 | 0.963 | 0.306 | 0.145 | 0.155 | 1.07 | 1.04 | 0.991 | 1.03 | 0.875
NCI-H1755 | 1.04 | 1.06 | 0.978 | 1 | 1.06 | 0.954 | 0.905 | 0.547 | 0.255 | 0.198 | 1.05 | 1.03 | 1.04 | 1 | 0.966
NCI-H1792 | 0.998 | 0.837 | 1.04 | 0.934 | 0.879 | 0.929 | 0.954 | 1.1 | 0.412 | 0.4 | 1.07 | 0.918 | 0.83 | 0.773 | 0.723
NCI-H1793 | 1.07 | 0.948 | 0.826 | 1.11 | 0.855 | 0.91 | 0.982 | 1.01 | 0.473 | 0.361 | 0.968 | 0.98 | 0.908 | 0.906 | 1.1
NCI-H1915 | 1.05 | 0.978 | 1.01 | 0.973 | 0.994 | 0.958 | 0.911 | 0.692 | 0.219 | 0.224 | 1.03 | 1.02 | 0.971 | 0.932 | 0.737
NCI-H1944 | 1.1 | 0.902 | 1 | 0.998 | 1.13 | 0.975 | 0.788 | 0.583 | 0.176 | 0.176 | 0.887 | 0.967 | 0.922 | 0.981 | 0.644
NCI-H1975 | 0.961 | 0.888 | 0.93 | 0.923 | 0.934 | 0.96 | 1.14 | 1.38 | 0.843 | 0.447 | 1 | 0.944 | 0.968 | 0.931 | 0.9
NCI-H1993 | 0.97 | 0.982 | 0.955 | 1.02 | 1.03 | 0.877 | 0.758 | 0.596 | 0.531 | 0.658 | 0.988 | 1.02 | 0.967 | 0.878 | 0.8
NCI-H2009 | 1.12 | 0.997 | 0.988 | 0.988 | 1.06 | 0.823 | 0.439 | 0.287 | 0.136 | 0.0977 | 1.05 | 0.971 | 0.95 | 0.951 | 0.683

Cell Line | relative viability (GSK126; 0.08 µM) | relative viability (GSK126; 0.253 µM) | relative viability (GSK126; 0.8 µM) | relative viability (GSK126; 2.53 µM) | relative viability (GSK126; 8 µM) | relative viability (MLN4924; 0.04 µM) | relative viability (MLN4924; 0.1265 µM) | relative viability (MLN4924; 0.4 µM) | relative viability (MLN4924; 1.265 µM) | relative viability (MLN4924; 4 µM) | relative viability (Carboplatin; 0.08 µM) | relative viability (Carboplatin; 0.253 µM) | relative viability (Carboplatin; 0.8 µM) | relative viability (Carboplatin; 2.53 µM) | relative viability (Carboplatin; 8 µM)
NCI-H2023 | 1.13 | 1.04 | 1.02 | 1.22 | 1.09 | 0.986 | 0.739 | 0.207 | 0.0741 | 0.0639 | 1.1 | 1.08 | 0.959 | 0.572 | 0.249
NCI-H2085 | 1.06 | 1.05 | 0.958 | 0.943 | 1.02 | 0.978 | 1.01 | 1.12 | 0.772 | 0.541 | 1.08 | 1 | 0.981 | 1.01 | 0.905
NCI-H2087 | 1.18 | 0.945 | 1 | 1.15 | 1.17 | 1.02 | 0.969 | 0.491 | 0.16 | 0.0937 | 1.14 | 1.21 | 0.997 | 0.999 | 0.711
NCI-H2126 | 1.04 | 1.02 | 1.06 | 1.07 | 1 | 1.03 | 1.02 | 0.785 | 0.459 | 0.373 | 1.05 | 1.03 | 1.02 | 0.946 | 0.948
NCI-H2170 | 1.03 | 1.05 | 0.881 | 1.03 | 0.932 | 1 | 0.92 | 0.406 | 0.164 | 0.197 | 0.957 | 0.944 | 0.972 | 0.964 | 0.864
NCI-H2228 | 1.21 | 0.992 | 1.04 | 1.12 | 1.07 | 0.723 | 1.08 | 0.435 | 0.171 | 0.205 | 1.27 | 1.16 | 0.91 | 0.941 | 0.687
NCI-H2342 | 1.12 | 1.04 | 1.07 | 1.05 | 1.17 | 1.18 | 0.931 | 0.97 | 0.788 | 0.57 | 1.06 | 0.987 | 1.07 | 1.02 | 0.873
NCI-H2347 | 1.08 | 0.976 | 1.04 | 1.05 | 1 | 0.963 | 0.975 | 0.584 | 0.406 | 0.386 | 1.05 | 1 | 1.07 | 1.06 | 0.909
NCI-H2405 | 1.03 | 0.946 | 0.98 | 0.984 | 1.03 | 1.06 | 0.979 | 0.586 | 0.29 | 0.27 | 1.1 | 1 | 1.05 | 1.03 | 0.885
NCI-H3122 | 1.03 | 1 | 0.966 | 1.02 | 1 | 0.92 | 0.585 | 0.325 | 0.139 | 0.135 | 1.01 | 1.01 | 1.02 | 1.01 | 0.968
PC-3 [JPC-3] | 1.03 | 0.999 | 1.06 | 1.03 | 1.12 | 0.994 | 1.1 | 0.397 | 0.432 | 0.396 | 1.14 | 1.08 | 1.05 | 0.992 | 0.96
PC-14 | 1.02 | 1.01 | 0.935 | 1.03 | 0.942 | 1.04 | 0.93 | 0.624 | 0.153 | 0.111 | 1.09 | 0.998 | 0.997 | 0.684 | 0.309
RERF-LC-KJ | 1.12 | 1.1 | 1.02 | 1.01 | 1.05 | 0.879 | 0.738 | 0.233 | 0.211 | 0.228 | 0.978 | 1.02 | 0.939 | 0.88 | 0.702
SK-LU-1 | 1.01 | 1.05 | 1.02 | 1.14 | 1.08 | 0.99 | 0.799 | 0.369 | 0.191 | 0.201 | 1.16 | 1.07 | 1.06 | 0.975 | 0.802
SK-MES-1 | 1.03 | 0.999 | 0.985 | 1.04 | 1.08 | 0.999 | 0.846 | 0.563 | 0.222 | 0.221 | 1.07 | 0.991 | 1.02 | 0.974 | 0.918
SW 900 | 0.844 | 0.853 | 0.788 | 0.896 | 0.892 | 0.68 | 0.825 | 0.384 | 0.21 | 0.184 | 0.808 | 0.774 | 0.822 | 0.837 | 0.68
SW 1573 | 1.21 | 1.08 | 1.02 | 1.05 | 1.24 | 1.16 | 0.954 | 0.332 | 0.0817 | 0.0856 | 1.05 | 1.02 | 0.992 | 0.972 | 0.702
